Measured values as given in patent US8765773B2, “Substituted hydroxamic acids and uses thereof” (Millennium Pharmaceuticals, Inc., priority 2010, dated 2014).

Each compound was assayed against T1, purified human HDAC6 (Homo sapiens, UniProt Q9UBN7) (assay: HDAC6 Enzyme Assay). Settings: compound concentration 0.37 μM, read-out: Percent Inhibition.
T1 construct: purchased BPS Bioscience 5006
T1 sequence (Q9UBN7 1-1215): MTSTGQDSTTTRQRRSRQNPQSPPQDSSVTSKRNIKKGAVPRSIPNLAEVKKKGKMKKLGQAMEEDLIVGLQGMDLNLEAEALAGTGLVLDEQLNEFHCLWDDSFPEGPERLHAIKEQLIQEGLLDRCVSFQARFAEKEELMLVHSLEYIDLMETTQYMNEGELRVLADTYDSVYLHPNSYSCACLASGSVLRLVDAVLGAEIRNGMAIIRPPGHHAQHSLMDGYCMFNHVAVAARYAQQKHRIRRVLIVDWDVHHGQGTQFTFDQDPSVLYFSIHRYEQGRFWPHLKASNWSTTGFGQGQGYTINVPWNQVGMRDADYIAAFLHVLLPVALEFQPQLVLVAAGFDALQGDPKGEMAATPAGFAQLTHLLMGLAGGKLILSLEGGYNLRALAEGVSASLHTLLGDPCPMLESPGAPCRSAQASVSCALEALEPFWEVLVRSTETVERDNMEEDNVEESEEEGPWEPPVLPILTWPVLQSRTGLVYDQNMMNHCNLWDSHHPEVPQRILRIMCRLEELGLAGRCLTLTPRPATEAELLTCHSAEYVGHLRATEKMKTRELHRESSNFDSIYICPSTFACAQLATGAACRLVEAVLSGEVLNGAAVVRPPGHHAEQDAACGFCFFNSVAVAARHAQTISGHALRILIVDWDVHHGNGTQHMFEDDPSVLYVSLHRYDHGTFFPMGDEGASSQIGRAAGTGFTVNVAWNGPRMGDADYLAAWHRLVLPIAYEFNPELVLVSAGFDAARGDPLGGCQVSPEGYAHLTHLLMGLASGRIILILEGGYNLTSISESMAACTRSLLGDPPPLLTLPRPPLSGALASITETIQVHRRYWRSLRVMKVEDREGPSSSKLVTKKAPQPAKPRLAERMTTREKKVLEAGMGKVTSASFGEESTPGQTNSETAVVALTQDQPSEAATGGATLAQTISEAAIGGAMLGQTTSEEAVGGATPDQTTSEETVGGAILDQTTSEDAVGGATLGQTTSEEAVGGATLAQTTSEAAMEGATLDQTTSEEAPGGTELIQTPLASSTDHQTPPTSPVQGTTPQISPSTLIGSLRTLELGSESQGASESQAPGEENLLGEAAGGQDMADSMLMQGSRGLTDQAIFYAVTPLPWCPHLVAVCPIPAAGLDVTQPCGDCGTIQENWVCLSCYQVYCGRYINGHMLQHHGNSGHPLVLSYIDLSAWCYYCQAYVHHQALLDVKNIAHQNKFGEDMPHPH
Format: biochemical
Summary of the method: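 Purified human HDAC6 incubated 1 h at 30° C with Ac-Arg-Gly-Lys(Ac)-AMC peptide plus compound or DMSO; stopped with trichostatin A. Deacetylated product trypsin-digested, released AMC read by fluorescence (Ex 340/Em 460 nm). Percent inhibition at one concentration or IC50 from curves relative to DMSO controls.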
In the case of `O=C(O)c1ccc(-c2cccc(CCn3cnc4ccc(C(=O)NO)cc4c3=O)c2)cc1` [Compound I-321, 3′-{2-[6-[(hydroxyamino)carbonyl]-4-oxoquinazolin-3(4H)-yl]ethyl}biphenyl-4-carboxylic acid], the inhibition at 0.37 µM is reported as 87.3%. Compound `Nc1cccc(-c2cccc(CCn3cnc4ccc(C(=O)NO)cc4c3=O)c2)c1` [Compound I-322, 3-[2-(3′-aminobiphenyl-3-yl)ethyl]-N-hydroxy-4-oxo-3,4-dihydroquinazoline-6-carboxamide] has an inhibition at 0.37 µM of 76.1%. `O=C(NO)c1ccc2ncn(CCc3cccc(-c4ccn[nH]4)c3)c(=O)c2c1` [Compound I-323, N-hydroxy-4-oxo-3-{2-[3-(1H-pyrazol-5-yl)phenyl]ethyl}-3,4-dihydroquinazoline-6-carboxamide] was tested, and the inhibition at 0.37 µM was 94.6%. With `O=C(NO)c1ccc2ccn(CCc3cccc(C4CCNCC4)c3)c(=O)c2c1` [Compound I-324, N-hydroxy-1-oxo-2-[2-(3-piperidin-4-ylphenyl)ethyl]-1,2-dihydroisoquinoline-7-carboxamide] the inhibition at 0.37 µM was 91.2%. `O=C(NO)c1ccc2ncn(CCc3cccc(-c4ccccc4C(F)(F)F)c3)c(=O)c2c1` [Compound I-325, N-hydroxy-4-oxo-3-{2-[2′-(trifluoromethyl)biphenyl-3-yl]ethyl}-3,4-dihydroquinazoline-6-carboxamide] gave an inhibition at 0.37 µM of 42.1%. `CC(C)(C)C(=O)Nc1ncccc1-c1cccc(CCn2cnc3ccc(C(=O)NO)cc3c2=O)c1` [Compound I-327, 3-[2-(3-{2-[(2,2-dimethylpropanoyl)amino]pyridin-3-yl}phenyl)ethyl]-N-hydroxy-4-oxo-3,4-dihydroquinazoline-6-carboxamide] showed an inhibition at 0.37 µM of 92%. For `O=C(NO)c1ccc2ccn(-c3cccc(-c4ccncc4)c3)c(=O)c2c1` [Compound I-328, N-hydroxy-1-oxo-2-(3-pyridin-4-ylphenyl)-1,2-dihydroisoquinoline-7-carboxamide], the inhibition at 0.37 µM was 96.7%. With `COc1ccc(-c2cccc(CCn3cnc4ccc(C(=O)NO)cc4c3=O)c2)cn1` [Compound I-329, N-hydroxy-3-{2-[3-(6-methoxypyridin-3-yl)phenyl]ethyl}-4-oxo-3,4-dihydroquinazoline-6-carboxamide] the inhibition at 0.37 µM was 92.6%. Compound `O=C(NO)c1ccc2ncn(CCc3cccc(-c4cccnc4)c3)c(=O)c2c1` [Compound I-331, N-hydroxy-4-oxo-3-[2-(3-pyridin-3-ylphenyl)ethyl]-3,4-dihydroquinazoline-6-carboxamide] has an inhibition at 0.37 µM of 87.2%. With `O=C(NO)c1ccc2ncn(CCNCc3cccc(-n4cccn4)c3)c(=O)c2c1` [Compound I-332, N-hydroxy-4-oxo-3-(2-{[3-(1H-pyrazol-1-yl)benzyl]amino}ethyl)-3,4-dihydroquinazoline-6-carboxamide] the inhibition at 0.37 µM was 90.4%. Compound `CC(=O)Nc1ccc(-c2cccc(CCn3cnc4ccc(C(=O)NO)cc4c3=O)c2)cc1` [Compound I-334, 3-{2-[4′-(acetylamino)biphenyl-3-yl]ethyl}-N-hydroxy-4-oxo-3,4-dihydroquinazoline-6-carboxamide] has an inhibition at 0.37 µM of 93.8%. With `Cc1noc(C)c1-c1cccc(CCn2cnc3ccc(C(=O)NO)cc3c2=O)c1` [Compound I-336, 3-{2-[3-(3,5-dimethylisoxazol-4-yl)phenyl]ethyl}-N-hydroxy-4-oxo-3,4-dihydroquinazoline-6-carboxamide] the inhibition at 0.37 µM was 90.5%. For `O=C(NO)c1ccc2c(CO)cn(Cc3ccccc3)c(=O)c2c1` [Compound I-337, 2-benzyl-N-hydroxy-4-(hydroxymethyl)-1-oxo-1,2-dihydroisoquinoline-7-carboxamide], the inhibition at 0.37 µM was 57.7%. `CC(C)C(c1ccccc1)n1cnc2ccc(C(=O)NO)cc2c1=O` (stereo not drawn) [Compound I-338, N-hydroxy-3-(2-methyl-1-phenylpropyl)-4-oxo-3,4-dihydroquinazoline-6-carboxamide] showed an inhibition at 0.37 µM of 96.8%. `COc1cccc(-c2cccc(CCn3cnc4ccc(C(=O)NO)cc4c3=O)c2)c1` [Compound I-339, N-hydroxy-3-[2-(3′-methoxybiphenyl-3-yl)ethyl]-4-oxo-3,4-dihydroquinazoline-6-carboxamide] was tested, and the inhibition at 0.37 µM was 89.9%.
